Measured values: patent publication US5681925A, “Trifunctional antithrombin and antiplatelet peptides” (priority 1995, dated 1997)
Like-named read-outs stand apart in the source and are kept apart here. One block for each molecule: values may come before it. Bridge positions count the residues as written; N and C are the ends. Square brackets hold non-standard residues; d marks the D form. Ends that are not written are not given here. Peptide text beside a SMILES is read from it. Cha = N[C@@H](CC1CCCCC1)C(=O)O; Nle = CCCC[C@H](N)C(=O)O

Columns and labels:
[1] = test system: human plasma; assay: Activated partial thromboplastin time (aPTT) in human plasma; format: biochemical
Procedure: (§1) Activated partial thromboplastin time (aPTT) determinations are carried out using the reagents and methods of Dade Diagnostics, Inc. (Aguada, Puerto Rico 00602). Thrombin clotting times are determined by incubating 0.1 ml of rat plasma at 37° C. with 0.1 ml of 0.1M Tris buffer, pH 7.5 for 30 seconds. Coagulation is started with 0.1 ml of bovine thrombin (Sigma Diagnostics, St. Louis, Mo. 63178) solution (12 NIH units/ml). All clotting times are measured semiautomatically using a MLA-Electra 750 automatic coagualation timer, MLA, Inc. (Pleasantville, N.Y. 10570). The concentration required for doubling the clotting time (ID2) is calculated using simple linear regression.
(§2) Activated partial thromboplastin time (aPTT) determinations are carried out using the reagents and methods of Dade Diagnostics, Inc. (Aguada, Puerto Rico 0602). Thrombin clotting times are determined by incubating 0.1 ml of rat plasma at 37° C. with 0.1 ml of 0.1M Tris buffer, pH 7.5 for 30 seconds. Coagulation is started with 0.1 ml of bovine thrombin (Sigma Diagnostics, St. Louis, Mo. 63178) solution (12 NIH units/ml). All clotting times are measured semiautomatically using a MLA-Electra 750 automatic coagualation timer, MLA, Inc. (Pleasantville, N.Y. 10570). The concentration required for doubling the clotting time (ID2) is calculated using simple linear regression.

[2] = molecular target: T1, bovine thrombin (Bos taurus, UniProt P00735); assay: Thrombin clotting time in human plasma; format: biochemical
T1 construct: purchased Sigma Diagnostics, St. Louis, Mo
Procedure: as §1, §2

[3] = test system: human platelets
Procedure: (§3) Human platelet-rich plasma (PRP) is prepared by centrifugation at 200 g-forces for 10 min. at room temperature. Platelet poor plasma (PPP) is prepared by centrifugation at 2,000 g-forces for 10 min. PRP is exposed only to plastic laboratory ware. All experiments are completed within 3 hours of blood collection. Platelet aggregation is measured photometrically using a dual channel aggregometer (Chrono-log Corp., Haverstown, Pa. 19083). One hundred percent light transmission is defined with autologus PPP. Percent maximal change in light transmission is determined from PRP following addition of ADP (1 μM) or thrombin. Thrombin (0.2-2.0 Units/ml)-induced platelet aggregation is concentration dependent and the half-maximal concentration is used for inhibition studies. Peptide 2 (SEQ ID NO: 2) is incubated with PRP (0.45 ml) for 30 seconds prior to the addition of ADP or thrombin. Aggregation is measured in a total volume of 0.5 ml. Inhibitory responses are expressed as percent inhibition when compared to a control value. The concentration resulting in 50% inhibition of aggregation. (IC50) is calculated by simple linear regression.
(§4) Human platelet-rich plasma (PRP) is prepared by centrifugation at 200 g-forces for 10 min. room temperature. Platelet poor plasma (PPP) is prepared by centrifugation at 2,000 g-forces for 10 min. PRP is exposed only to plastic laboratory ware. All experiments are completed within 3 hours of blood collection. Platelet aggregation is measured photometrically using a Chrono-log dual channel aggregometer (Chrono-log Corp., Haverstown, Pa. 19083). One hundred percent light transmission is defined with autologus PPP. Percent maximal change in light transmission is determined from PRP following addition of ADP (1 μM) or thrombin. Thrombin (0.2-2.0 Units/ml)-induced platelet aggregation is concentration dependent and the half-maximal concentration is used for inhibition studies. Peptide 1 (SEQ ID NO: 1) is incubated with PRP (0.45 ml) for 30 seconds prior to the addition of ADP or thrombin. Aggregation is measured in a total volume of 0.5 ml. Inhibitory responses are expressed as percent inhibition when compared to a control value. The concentration resulting in 50% inhibition of aggregation (IC50) is calculated by simple linear regression.

[4] = test system: human platelets; remark: listed apart in the source
Procedure: as §3, §4

[5] = test system: human whole blood platelets; settings: read-out: IC50 whole blood platelet aggregation, ADP (0.5 μM) and thrombin (0.025 U/ml)
Procedure: (§5) Platelet aggregation in blood is performed in saline diluted (1:2) citrated blood using a whole blood aggregomenter (Chrono-log, model 540-VS). Aliquots of diluted blood are placed in plastic cuvettes and incubated at 37° C. for 15 min. Addition of ADP (2 μM) or thrombin (0.4 U/ml) is used to induce aggregation and the change in electrical impedance is registered on a strip chart recorder. Aggregation is measured in a total blood volume of 1.0 ml. Inhibitory responses are expressed as percent inhibition when compared to a control value. The concentration resulting in 50% inhibition of aggregation (IC50) is calculated by simple linear regression.

[6] = test system: rat whole blood platelets; settings: read-out: IC50 whole blood platelet aggregation, ADP (0.5 μM) and thrombin (0.025 U/ml)
Procedure: as §5

[7] = dog, in vivo
Procedure: (§6) Dogs are anesthetized with sodium pentobarbital (30 mg/kg, i.v.). The femoral artery and both femoral veins are isolated and cannulated for the recording of blood pressure (Gould P23ID, Gould Inc., Medical Products Division, Oxnard, Calif. 93030), blood sampling, and drug administration. Limb leads are placed subcutaneously for monitoring of lead II ECG. Blood pressure and ECG measurements are recorded (Gould 440 recorder, Gould Inc., Instrument Systems Division, Cleveland, Ohio 44114).
Template bleeding times are performed on the median surface of the left leg after the hair has been removed (Nair, Carter-Wallace, Inc., New York, N.Y. 10105) using a Surgicutt® bleeding time device (International Technidyne Corp., Edison, N.J. 08820). Template bleeding times are determined 60 and 30 min before administration of the drug, 15, 30, 60, 120, 180 and 240 min after drug administration.
Whole blood cell counts and analysis of the hemoglobin content are determined on a 140 μL blood sample anticoagulated with EDTA processed with a hematology analyzer (Technicon El, Miles Technicon, Tarrytown, N.Y. 10591). Samples were taken at 60 and 30 min before administration of the drug, 15, 30, 60, 120, 180 and 240 min after drug administration.

[8] = test system: dog platelets; assay: Intravenous infusion in anesthetized dogs: platelet aggregation; settings: after 1 nmol/kg/min infusion is stopped
Procedure: as §6, §5

[9] = test system: thrombin; assay: Intravenous infusion in anesthetized dogs: thrombin time and aPTT
Procedure: as §6
Activated partial thromboplastin time (aPTT) determinations are carried out using the reagents and methods of Dade Diagnostics, Inc. (Aguada, Puerto Rico 0602). Thrombin clotting times are determined by incubating 0.1 ml of rat plasma at 37° C. with 0.1 ml of 0.1M Tris buffer, pH 7.5 for 30 seconds. Coagulation is started with 0.1 ml of bovine thrombin (Sigma Diagnostics, St. Louis, Mo. 63178) solution (12 NIH units/ml). All clotting times are measured semiautomatically using a MLA-Electra 750 automatic coagualation timer, MLA, Inc. (Pleasantville, N.Y. 10570). The concentration required for doubling the clotting time (ID2) is calculated using simple linear regression. […] Estimation of t1/2 is made by linear regression of the response data over time.

Molecule: fPRPGCGRGD(Nle)PCGDYEPIPEEAYD [Peptide 4, reference compound]
anticoagulant activity (in words) ([1]; aPTT and thrombin time): less anticoagulant activity than Peptide 2 | ID2 aPTT ([1]; concentration doubling clotting time): 115 ± 24 nM | ID2 Thrombin Time ([2]; human plasma, concentration doubling clotting time): 14 ± 3 nM | inhibition of ADP-induced platelet aggregation (in words) ([3]; human platelets): approximately equivalent to Peptide 1 | IC50 ([3]; read-out: IC50 inhibition of platelet aggregation, ADP, human PRP, ADP-induced): 35.9 ± 0.5 µM | fold less active than Peptide 1, thrombin-induced platelet aggregation ([4]; human platelets): approximately 1,000 fold | IC50 ([4]; read-out: IC50 Thrombin, human PRP, thrombin-induced): 0.408 ± 0.18 µM

Molecule: CCCC[C@@H]1NC(=O)[C@H](CC(=O)O)NC(=O)CNC(=O)[C@H](CCCNC(=N)N)NC(=O)CNC(=O)[C@H](NC(=O)CNC(=O)[C@@H]2CCCN2C(=O)[C@H](CCCNC(=N)N)NC(=O)[C@@H]2CCCN2C(=O)[C@H](N)Cc2ccccc2)CSSC[C@H](C(=O)NCC(=O)N[C@@H](CC(=O)O)C(=O)N[C@@H](Cc2ccc(O)cc2)C(=O)N[C@@H](CCC(=O)O)C(=O)N2CCC[C@H]2C(=O)N[C@H](C(=O)N2CCC[C@H]2C(=O)N[C@@H](CCC(=O)O)C(=O)N[C@@H](CCC(=O)O)C(=O)N[C@@H](C)C(=O)N[C@@H](CC2CCCCC2)C(=O)N[C@H](CCC(=O)O)C(=O)O)[C@@H](C)CC)NC(=O)[C@@H]2CCCN2C1=O [Peptide 1, fPRPGcGRGD(Nle)PcGDYEPIPEEA(Cha)e] (H-[dF]PRPG[dC]GRGD[Nle]P[dC]GDYEPIPEEA[Cha][dE]-OH; disulfide 6-13)
IC50 ([3]; 3 h): 11.4 µM | IC50 [5]: 0.0029 µM | IC50 [6]: 0.0425 µM | time after infusion ends at which blood pressure and heart rate return to baseline control values [7]: 2 h | pharmacodynamic t1/2, restoration of platelet activity [8]: 12.8 ± 1.1 min | pharmacodynamic t1/2, restoration of thrombin activity ([9]; after 1 hr infusion of 1 nmol/kg/min): 17 ± 0.1 min | pharmacodynamic t1/2, restoration of thrombin activity ([9]; after 1 hr infusion of 5 nmol/kg/min): 26 ± 3.2 min

Further lines, with some results ahead:

IC50 ([3]; 3 h): ~19 µM | IC50 ([4]; 3 h): 0.06 ± 0.026 µM
Molecule: CC[C@H](C)[C@H](NC(=O)[C@@H]1CCCN1C(=O)[C@H](CCC(=O)O)NC(=O)[C@H](Cc1ccc(O)cc1)NC(=O)[C@H](CC(=O)O)NC(=O)CNC(=O)[C@H]1CSSC[C@@H](NC(=O)CNC(=O)[C@@H]2CCCN2C(=O)[C@H](CCCNC(=N)N)NC(=O)[C@@H]2CCCN2C(=O)[C@H](N)Cc2ccccc2)C(=O)NCC(=O)N[C@@H](CCCNC(=N)N)C(=O)NCC(=O)N[C@@H](CC(=O)O)C(=O)N[C@@H](Cc2ccccc2)C(=O)N2CCC[C@H]2C(=O)N1)C(=O)N1CCC[C@H]1C(=O)N[C@@H](CCC(=O)O)C(=O)N[C@@H](CCC(=O)O)C(=O)N[C@@H](C)C(=O)N[C@@H](CC1CCCCC1)C(=O)N[C@H](CCC(=O)O)C(=O)O [Peptide 2, fPRPGcGRGDFPcGDYEPIPEEA(Cha)e] (H-[dF]PRPG[dC]GRGDFP[dC]GDYEPIPEEA[Cha][dE]-OH; disulfide 6-13)

IC50 ([3]; 3 h): > 1000 µM | IC50 ([4]; 3 h): 0.2 µM
Molecule: CN[C@H](Cc1ccccc1)C(=O)N1CCC[C@H]1C(=O)N[C@@H](CCCNC(=N)N)C(=O)O [Peptide 2d, (CH3)fPR, reference compound]

Relative activity vs Peptide 1: Coagulation Thrombin Time ([2]; ratio to Peptide 1 (ID2 15 nM), 1 = as active as Peptide 1): 0.86
Molecule: fPRPGcvRGD(Nle)PcGDYEPIPEEA(Cha)e ([dF]PRPG[dC][dV]RGD[Nle]P[dC]GDYEPIPEEA[Cha][dE]; disulfide 6-13 (inferred)) [Peptide 11]
Relative activity vs Peptide 1: Coagulation aPTT ([1]; ratio to Peptide 1 (ID2 27.9 nM), 1 = as active as Peptide 1): 0.37 | Relative activity vs Peptide 1: Aggregation Thrombin ([4]; ratio to Peptide 1 (IC50 5.8 nM), 1 = as active as Peptide 1): 0.13
